Laboratory results taken from US20130085469A1, “TAUROLIDINE FORMULATIONS AND DELIVERY: THERAPEUTIC TREATMENTS AND ANTIMICROBIAL PROTECTION AGAINST BACTERIAL BIOFILM FORMATION” (priority 2004, published 2013).
Like-named read-outs stand apart in the source and are kept apart here.

Columns and labels:
[1] = tested on: Planktonic form of bacteria; details: cited from earlier work
[2] = over several years at room temperature; cited from earlier work
[3] = 30 g/day infused; cited from earlier work
[4] = tested on: resistant Burkholderia cepacia; details: isolates from adult cystic fibrosis patients; cited from earlier work
[5] = tested on: bacteria; details: 25 years of clinical use and many in-vitro tests; cited from earlier work
[6] = tested on: clinically significant bacterial strains and some important fungi; details: published test results; cited from earlier work
[7] = cited from earlier work
[8] = Diffusion through silicone rubber catheter wall; type: physicochemical; details: silicone rubber 2 mm ID, 0.5 mm wall, filled with water, 2% Taurolidine bath, UV-Vis
Method: 4. Taurolidine is a small molecule able to pass through human skin as well as through polymeric materials passively by diffusion which is driven by a concentration gradient. Experiments were conducted to determine if Taurolidine is able to diffuse through silicone rubber at a rate sufficient to achieve clinical significance. The experiment was conducted with a HD catheter-sized silicone rubber (i.e., 2 mm ID and 0.5 mm wall thickness). This was filled with water and capped off. It was immersed in a 2% Taurolidine bath. Within 3 days the inner volume equilibrated with the Taurolidine bath. The sensing instrument was a UV-Vis spectrometer.

[9] = tested on: bacteria; details: cited from earlier work
[10] = tested on: infection from HD catheters; details: 2 controlled studies; cited from earlier work
[11] = in vivo; cited from earlier work
[12] = cited from earlier work; remark: listed apart in the source
[13] = Pharmacokinetics, central blood values after IV dose; type: in vivo; details: human, corresponds to first time constant 0.3
From the text: (§1) FIG. 1 illustrates the clearance of a typical antibiotic in the blood stream. It is a typical power decay curve after drug administration. Table 3 lists important variables which determine the biocidal effect on bacteria in the blood stream. The 5 factors in the upper portion of the table define the characteristics for Vancomycin, a typical antibiotic, and the characteristics for Taurolidine. Lower in the table is the portion called Surrogate Markers. These markers are Pharmacokinetic/Pharmacodynamic (PK/PD) values calculated from the concentration profiles in the body for specifics sites and drugs to guide therapy. The derived parameters have been estimated for Vancomycin (see FIG. 1, which is average values defined in the drug label with data obtained from human trials). Taurolidine Markers have been obtained from various literature sources. The Markers are useful in predicting antimicrobial drug efficacy in infection eradication. Of course, the values of the PK/PD parameters must be for the specific bacteria causing the infection and for the specific body site.
Kinetic parameters from Steinbach et al.^28 and infusion data from Willatts et al.^27 were used for the calculation. Taurolidine diffuses rapidly and body water concentration is equivalent to the plasma water concentration. […]

[14] = tested on: typical bacteria; details: cited from earlier work
[15] = tested on: typical bacteria; experiment: Minimum bactericidal concentration (MBC); type: cell-based
[16] = tested on: Burkholderia cepacia; details: delivered to the lung via a nebulizer; cited from earlier work
[17] = Max tolerated dose and max potential delivery; type: in vivo; details: calculated in footnote a
From the text: as §1

O=S1(=O)CCN(CN2CCS(=O)(=O)NC2)CN1 [Taurolidine, 4,4′ Methlyen-bis(tetrahydro-2H-1,4-thiadiazin-1,1dioxide)]
exposure to achieve killing action [1]: Planktonic form of bacteria requires approximately 2 hours | stability in powder or aqueous solution [2]: Taurolidine in powder or aqueous solution is stable | benefit of Taurolidine infusion in sepsis syndrome [3]: No benefits | decremental effect of Taurolidine infusion [3]: not shown any statistically significant decremental effect | in vitro response [4]: positive response | bacterial resistance [5]: 1. No Bacterial Resistance | broad spectrum antimicrobial effect [6]: Effective against substantially all clinically significant | Peak Plasma Concentration (CP) ([7]; cell adds: Not applicable for Taurolidine): 150 μg/ml^28 | T1/2 (Drug Half Life in Blood) ([7]; first value of 70/140, footnote b, time const 0.57): ~70 min | T1/2 (Drug Half Life in Blood) ([7]; second value of 70/140, footnote b, first time constant 0.3): ~140 min | time for inner volume to equilibrate with the Taurolidine bath [8]: ≤ 3 days | concentration needed to show minimum effectiveness [9]: > 0.05% | lower end range for MIC [9]: approximately 0.5 mg/mL | reduction in infection compared to conventional heparin lock [10]: ~2 controlled studies resulted in approximately 95% | concentration producing pain in most tissue on contact [11]: ≥ 10000 µg/mL | pain on direct contact with most tissue [11]: Direct contact with most tissue causes intense pain | Max Tolerated Dose [12]: >30 g/day^27 | half-life [13]: ~2.3 h | MBC [14]: MBC than antibiotics. (i.e., MBC of 2 mg/ml vs. 2 ug/ml | MBC relative to antibiotics [15]: Taurolidine has an approximate 1000 times higher | reduction in bacterial load [16]: failure to achieve a significant reduction in bacterial load in most patients

CN[C@H](CC(C)C)C(=O)N[C@H]1C(=O)N[C@@H](CC(N)=O)C(=O)N[C@H]2C(=O)N[C@H]3C(=O)N[C@H](C(=O)N[C@H](C(=O)O)c4cc(O)cc(O)c4-c4cc3ccc4O)[C@H](O)c3ccc(c(Cl)c3)Oc3cc2cc(c3O[C@@H]2O[C@H](CO)[C@@H](O)[C@H](O)[C@H]2O[C@H]2C[C@](C)(N)[C@H](O)[C@H](C)O2)Oc2ccc(cc2Cl)[C@H]1O [Vancomycin]
Peak Plasma Concentration (CP) ([7]; average values from drug label, FIG. 1): 50 µg/mL | T1/2 (Drug Half Life in Blood) [7]: ~7 hours^30 | MIC (Minimum Inhibitory Concentration) [9]: <4 μg/mL^29 | Max Tolerated Dose [17]: >5 g/day (See footnote a)
